Literature values in patent US20050282838A1, “Compounds, compositions, and methods” (priority 2003, published 2005).

Test system: A549 cells
Conditions: data provided by National Cancer Institute

| SMILES | GI50 [µM] |
| --- | --- |
| COc1cccc2c1C(=O)c1c(O)c3c(c(O)c1C2=O)C[C@@](O)(C(=O)CO)C[C@@H]3O[C@H]1C[C@H](N)[C@H](O)[C@H](C)O1 [doxorubicin] | 0.063 |
| NC(=O)NO [hydroxyurea] | 500 |
| O=c1[nH]cc(F)c(=O)[nH]1 [5-fluorouracil] | 1 |
| CC(=O)O[C@H]1C(=O)[C@@]2(C)[C@H]([C@H](OC(=O)c3ccccc3)[C@]3(O)C[C@H](OC(=O)[C@H](O)[C@@H](NC(=O)c4ccccc4)c4ccccc4)C(C)=C1C3(C)C)[C@]1(OC(C)=O)CO[C@@H]1C[C@@H]2O [paclitaxel] | 0.004 |
